Data taken from the NIST ThermoML archive (doi:10.1016/j.jct.2012.12.022).
± gives the expanded uncertainty stated by the source.

Assay: mn = molality of the nth substance listed, in mol/kg
Conditions: 101 kPa, Liquid; for speed of sound: Sing-around technique in a fixed-path interferometer; for mass density: Vibrating tube method

O=C([O-])CC(O)(CC(=O)[O-])C(=O)[O-].[K+].[K+].[K+] [potassium citrate] + O
Conditions | mass density, 288.15 K [kg/m3] | mass density, 293.15 K [kg/m3] | mass density, 298.15 K [kg/m3] | mass density, 303.15 K [kg/m3] | speed of sound, 288.15 K [m/s] | speed of sound, 293.15 K [m/s] | speed of sound, 298.15 K [m/s] | speed of sound, 303.15 K [m/s]
m1 = 0.00361 | 999.9 ± 0.2 | 998.989 ± 0.2 | 997.839 ± 0.2 | 996.386 ± 0.2 | 1467.4 ± 2.1 | 1483.1 ± 2.1 | 1497.3 ± 2.1 | 1509.7 ± 2.1
m1 = 0.05427 | 1010.36 ± 0.2 | 1009.25 ± 0.2 | 1007.98 ± 0.2 | 1006.52 ± 0.2 | 1478.4 ± 2.1 | 1493.8 ± 2.1 | 1507.6 ± 2.1 | 1519.7 ± 2.1
m1 = 0.09681 | 1018.59 ± 0.2 | 1017.45 ± 0.2 | 1016.12 ± 0.2 | 1014.61 ± 0.2 | 1487.2 ± 2.1 | 1502.1 ± 2.1 | 1515.8 ± 2.1 | 1527.7 ± 2.1
m1 = 0.2001 | 1038.27 ± 0.21 | 1037.36 ± 0.21 | 1035.59 ± 0.21 | 1034.01 ± 0.21 | 1507 ± 2.1 | 1521.7 ± 2.1 | 1534.6 ± 2.1 | 1545.9 ± 2.1
m1 = 0.2914 | 1055.11 ± 0.21 | 1053.58 ± 0.21 | 1051.92 ± 0.21 | 1050.18 ± 0.21 | 1524.1 ± 2.1 | 1537.8 ± 2.1 | 1550.6 ± 2.1 | 1561.2 ± 2.1
m1 = 0.3859 | 1071.84 ± 0.21 | 1070.62 ± 0.21 | 1069.02 ± 0.21 | 1066.43 ± 0.21 | 1541.9 ± 2.1 | 1555.4 ± 2.1 | 1567.7 ± 2.1 | 1577.7 ± 2.1
m1 = 0.4948 | 1090.12 ± 0.21 | 1088.43 ± 0.21 | 1086.46 ± 0.21 | 1084.57 ± 0.21 | 1561.8 ± 2.1 | 1572.8 ± 2.1 | 1584.8 ± 2.1 | 1595.2 ± 2.1
m1 = 0.5799 | 1104.11 ± 0.21 | 1102.38 ± 0.21 | 1100.2 ± 0.21 | 1098.17 ± 0.21 | 1576.6 ± 2.1 | 1588 ± 2.1 | 1598.8 ± 2.1 | 1609.1 ± 2.1
m1 = 0.6983 | 1122.79 ± 0.22 | 1120.89 ± 0.22 | 1118.45 ± 0.22 | 1116.27 ± 0.22 | 1597.6 ± 2.1 | 1608.2 ± 2.1 | 1618.3 ± 2.1 | 1627.5 ± 2.1
m1 = 0.7576 | 1131.78 ± 0.22 | 1129.85 ± 0.22 | 1127.36 ± 0.22 | 1125.04 ± 0.22 | 1607.6 ± 2.1 | 1618.9 ± 2.1 | 1627.7 ± 2.1 | 1637.2 ± 2.1
m1 = 0.8939 | 1151.83 ± 0.23 | 1149.58 ± 0.23 | 1146.96 ± 0.23 | 1144.2 ± 0.23 | 1630.8 ± 2.2 | 1641.3 ± 2.1 | 1649.4 ± 2.1 | 1657.5 ± 2.1
